These results are taken from ChEMBL document CHEMBL1201862, “PubChem BioAssay data set” (2004).

Test systems include SNB-75; T47D; U-251; UO-31; SF-295; NCI-H522; TK-10; SK-OV-3; Hs-578T; PC-3; RPMI-8226; SF-539; DU-145; MCF7; EKVX; HCT-15; 786-0; COLO 205; OVCAR-5.
Holding throughout (experiment): inhibition of tumour cell growth, NCI panel, 48 h

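Cells were grown in 96-well plates and exposed to each compound for 48 hours at five concentrations; endpoints were interpolated linearly between bracketing concentrations, or set to the highest concentration if not reached. GI50 is the concentration that inhibits growth by half.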 Calls of active or inactive are those of the source. Rule as the data show it: active = GI50 up to about 1.1 µM and inactive = higher.

Turning to `Cc1nc([N+](=O)[O-])cn1-c1nc2ccccn2c1[N+](=O)[O-]`, the GI50 in the assay with SNB-75 is 32.9 µM (inactive); with T47D, 43.7 µM (inactive); in the assay with U-251 it was 53.2 µM (inactive); in the assay with UO-31, 88.5 µM (inactive); in the assay on SF-295, > 100 µM (inactive); in the assay with NCI-H522 it was 55 µM (inactive). Further, the GI50 with TK-10 is 67.5 µM (inactive); in the assay on SK-OV-3, 47.2 µM (inactive); with Hs-578T, > 100 µM (inactive); in the assay with PC-3, 38.4 µM (inactive); in the assay with RPMI-8226, 64.1 µM (inactive); in the assay with SF-539, 68.2 µM (inactive). Moreover, the GI50 in the assay on DU-145 was 26.5 µM (inactive); with MCF7, 95.3 µM (inactive); in the assay with EKVX, 63.7 µM (inactive); with HCT-15, above 100 µM; in the assay on 786-0, 61.7 µM (inactive); in the assay on COLO 205, 90.4 µM (inactive). The GI50 in the assay with OVCAR-5 was > 100 µM (inactive).

For the compound `COC(=O)c1ccc(CCc2cc(O)c(Br)cc2O)cc1`, the GI50 was 26.8 µM (inactive) in the assay on SNB-75; 18.6 µM (inactive) in the assay on T47D; 12.6 µM (inactive) in the assay on U-251; 6.47 µM (inactive) in the assay on UO-31; 14.1 µM (inactive) in the assay on SF-295; 3.16 µM (inactive) in the assay on NCI-H522. For the same compound, the GI50 in the assay on TK-10 was 14.5 µM (inactive); in the assay with SK-OV-3, 25.4 µM (inactive); in the assay on Hs-578T, 33.3 µM (inactive); with PC-3 it was 8.02 µM (inactive); in the assay on RPMI-8226, 3.35 µM (inactive); in the assay with SF-539, 8.3 µM (inactive). Further, the GI50 with DU-145 was 14.4 µM (inactive); in the assay on MCF7, 13.5 µM (inactive); in the assay with EKVX, 16.9 µM (inactive); in the assay with HCT-15 it was 13.4 µM; in the assay with 786-0 it was 14.4 µM (inactive); in the assay with COLO 205 it was 12.6 µM (inactive). Moreover, the GI50 with OVCAR-5 is 18.5 µM (inactive).

In the case of `Cc1cc(O)c2cc3c(O)c(O)ccc3cc2c1`, the GI50 in the assay on SNB-75 is 0.488 µM (active); in the assay on T47D, 1.75 µM (inactive); with U-251, 0.42 µM (active); in the assay with UO-31 it was 0.7 µM (active); with SF-295 it was 0.619 µM (active); with NCI-H522 it was 0.789 µM (active). In addition, the GI50 was 3.78 µM (inactive) in the assay with TK-10; 0.774 µM (active) in the assay on SK-OV-3; 0.465 µM (active) with Hs-578T; 0.302 µM (active) in the assay with PC-3; 0.326 µM (active) with RPMI-8226; 0.822 µM (active) in the assay with SF-539. The GI50 in the assay with DU-145 is 3.91 µM (inactive); in the assay with MCF7, 2.27 µM (inactive); with EKVX, 2.12 µM (inactive); in the assay with HCT-15 it was 1.2 µM; in the assay on 786-0 it was 3.95 µM (inactive); in the assay on COLO 205 it was 0.351 µM (active). In addition, in the assay with OVCAR-5, the GI50 was 3.17 µM (inactive).

`CC(C)(C)c1cc(C2COC(=O)COCC(=O)OCCOCCOCCO2)cc(C(C)(C)C)c1O` (stereo not drawn): the GI50 in the assay with SNB-75 is 16.1 µM (inactive); in the assay with T47D, > 100 µM (inactive); in the assay on U-251 it was 34.3 µM (inactive); in the assay on UO-31 it was 18.6 µM (inactive); with SF-295, 23.6 µM (inactive); in the assay on NCI-H522, > 52.8 µM (inactive). Moreover, the GI50 in the assay on TK-10 was 20.4 µM (inactive); with SK-OV-3 it was 24.9 µM (inactive); in the assay with Hs-578T it was 17.9 µM (inactive); in the assay with PC-3, 40.2 µM (inactive); with RPMI-8226 it was > 100 µM (inactive); in the assay on SF-539, 45.5 µM (inactive). The GI50 is 21 µM (inactive) in the assay on DU-145; > 100 µM (inactive) in the assay with MCF7; > 75.7 µM (inactive) in the assay on EKVX; above 100 µM in the assay on HCT-15; 21.4 µM (inactive) in the assay on 786-0; > 100 µM (inactive) in the assay on COLO 205. Also, in the assay with OVCAR-5, the GI50 is 28.4 µM (inactive).

Regarding `CCn1c(SCC(=O)NNC(=S)Nc2ccc(C)cc2)nc2ccccc2c1=O`, the GI50 in the assay with SNB-75 is > 100 µM (inactive); in the assay with T47D it was 65.5 µM (inactive); in the assay with U-251, > 100 µM (inactive); in the assay on UO-31 it was 22 µM (inactive); with SF-295, > 100 µM (inactive); in the assay with NCI-H522, > 100 µM (inactive). Besides, the GI50 with TK-10 was 85.5 µM (inactive); in the assay on SK-OV-3, > 100 µM (inactive); in the assay with Hs-578T it was > 100 µM (inactive); with PC-3, > 100 µM (inactive); in the assay on RPMI-8226 it was 70.1 µM (inactive); in the assay on SF-539, > 100 µM (inactive). Moreover, the GI50 is > 100 µM (inactive) in the assay with DU-145; > 100 µM (inactive) in the assay on MCF7; > 100 µM (inactive) in the assay with EKVX; above 100 µM in the assay on HCT-15; > 100 µM (inactive) in the assay on 786-0; > 100 µM (inactive) in the assay on COLO 205. The GI50 in the assay on OVCAR-5 is > 100 µM (inactive).

On to `Oc1cn(-c2ccc(Cl)cc2)nc1-c1n[nH]c(=S)n1-c1ccccc1`, for which the GI50 with SNB-75 was 21.1 µM (inactive); with T47D, 19.5 µM (inactive); with U-251, 10.8 µM (inactive); with UO-31, 14.2 µM (inactive); in the assay on SF-295 it was 4.94 µM (inactive); in the assay with NCI-H522 it was 5.01 µM (inactive). The GI50 is 22 µM (inactive) in the assay with TK-10; 17.2 µM (inactive) in the assay with SK-OV-3; 7.64 µM (inactive) in the assay with Hs-578T; 27.5 µM (inactive) in the assay with PC-3; 5.46 µM (inactive) in the assay with RPMI-8226; 5.92 µM (inactive) in the assay with SF-539. The GI50 in the assay on DU-145 was 22.3 µM (inactive); in the assay on MCF7, 4.42 µM (inactive); with EKVX it was 27.2 µM (inactive); with HCT-15, 3.36 µM; in the assay with 786-0, 11.6 µM (inactive); with COLO 205, 23 µM (inactive). In addition, the GI50 in the assay on OVCAR-5 is 24.2 µM (inactive).

In the case of `CC(C)(C)N1CC1CNC(=O)C(=O)NCC1CN1C(C)(C)C` (stereo not drawn), the GI50 is 4.32 µM (inactive) in the assay with SNB-75; 22.2 µM (inactive) in the assay with T47D; 3.05 µM (inactive) with U-251; 6.61 µM (inactive) in the assay on UO-31; 3.33 µM (inactive) with SF-295; 1.31 µM (inactive) in the assay with NCI-H522. Further, the GI50 in the assay with TK-10 is 51.1 µM (inactive); in the assay with SK-OV-3, 3.69 µM (inactive); in the assay with Hs-578T, 91 µM (inactive); in the assay with PC-3, 14.9 µM (inactive); in the assay on RPMI-8226, 5.86 µM (inactive); in the assay on SF-539 it was 2.94 µM (inactive). In addition, the GI50 with DU-145 is 7.62 µM (inactive); in the assay on MCF7 it was 9.31 µM (inactive); in the assay with EKVX it was 14.2 µM (inactive); with HCT-15, 3.74 µM; with 786-0, 1.4 µM (inactive); with COLO 205, 3.79 µM (inactive). For the same compound, the GI50 in the assay on OVCAR-5 is 2.62 µM (inactive).

In the case of `[O-][S@@+]1c2ccc3ccccc3c2N[C@@H]2[C@H]1[C@H]1C=C[C@@H]2C1`, the GI50 in the assay with SNB-75 is 16.9 µM (inactive); in the assay on T47D, 16.5 µM (inactive); in the assay on U-251 it was 76.4 µM (inactive); with UO-31 it was 64.4 µM (inactive); in the assay on SF-295, 40.5 µM (inactive); in the assay with NCI-H522, 21.5 µM (inactive). The GI50 with TK-10 was 51.1 µM (inactive); with SK-OV-3 it was 42.1 µM (inactive); in the assay with Hs-578T it was 30.1 µM (inactive); in the assay on PC-3, 32.4 µM (inactive); with RPMI-8226 it was 31.6 µM (inactive); in the assay with SF-539, > 100 µM (inactive). The GI50 was 46.9 µM (inactive) in the assay on DU-145; 26.1 µM (inactive) in the assay on MCF7; > 100 µM (inactive) in the assay with EKVX; 33.1 µM in the assay on HCT-15; 64.3 µM (inactive) with 786-0; 46.6 µM (inactive) in the assay on COLO 205. Further, the GI50 with OVCAR-5 was > 100 µM (inactive).

`CSc1ccc(/C=C/C(=O)c2nc3ccccc3[nH]2)cc1`: the GI50 with SNB-75 is 13.2 µM (inactive); with T47D, 3.95 µM (inactive); in the assay with UO-31 it was 3.66 µM (inactive); with SF-295, 24.3 µM (inactive); with NCI-H522 it was 12.2 µM (inactive); in the assay with TK-10, 3.58 µM (inactive). Further, the GI50 is 27.5 µM (inactive) in the assay with SK-OV-3; 37.2 µM (inactive) with Hs-578T; 12.3 µM (inactive) in the assay on PC-3; 3.02 µM (inactive) with RPMI-8226; 4.45 µM (inactive) with SF-539; 1.87 µM (inactive) in the assay with DU-145. Further, the GI50 is 2.64 µM (inactive) in the assay on MCF7; 17.8 µM (inactive) in the assay on EKVX; 11.8 µM with HCT-15; 12.7 µM (inactive) with 786-0; 18.1 µM (inactive) in the assay on COLO 205; 25.2 µM (inactive) in the assay on OVCAR-5.

For the compound `Oc1cc(-c2ccccc2)cn2c1nc1ccccc12`, the GI50 is > 36.3 µM (inactive) in the assay with SNB-75; 1.5 µM (inactive) in the assay with T47D; 2.51 µM (inactive) in the assay on U-251; 2.64 µM (inactive) in the assay with UO-31; 6 µM (inactive) in the assay with SF-295; 0.243 µM (active) in the assay with NCI-H522. In addition, the GI50 in the assay on TK-10 is > 100 µM (inactive); in the assay with SK-OV-3, 1.09 µM (active); with Hs-578T, 2.19 µM (inactive); in the assay with PC-3, 3.85 µM (inactive); in the assay with RPMI-8226, 2.3 µM (inactive); with SF-539 it was 2.59 µM (inactive). Also, the GI50 with DU-145 is 4.55 µM (inactive); in the assay on MCF7 it was 1.22 µM (inactive); in the assay on EKVX, > 94.2 µM (inactive); in the assay with HCT-15, 0.643 µM; in the assay with 786-0 it was 3.21 µM (inactive); in the assay on COLO 205, 21.3 µM (inactive). The GI50 in the assay with OVCAR-5 is > 100 µM (inactive).

With `NCCCCN(CCCN)C(=O)OCc1ccccc1`, the GI50 in the assay with SNB-75, in the assay on T47D, in the assay on U-251, with UO-31, in the assay with SF-295 and with NCI-H522 was > 100 µM (inactive) each time. The GI50 in the assay with TK-10, with SK-OV-3, in the assay on Hs-578T, in the assay with PC-3, with RPMI-8226 and with SF-539 was > 100 µM (inactive) in each case. For the same compound, the GI50 was > 100 µM (inactive) with DU-145; > 100 µM (inactive) in the assay with MCF7; > 100 µM (inactive) with EKVX; above 100 µM in the assay on HCT-15; > 100 µM (inactive) with 786-0; > 100 µM (inactive) in the assay on COLO 205. Further, in the assay with OVCAR-5, the GI50 was > 100 µM (inactive).
